The record followed here is patent US20240307361A1, “METHOD FOR DIAGNOSING AND TREATING IRRITABLE BOWEL SYNDROME” (Centre for Chinese Herbal Medicine Drug Development Limited, priority 2023, published 2024).

Series [1] concerns mouse intestinal tissues. The experiment in a line: 5-HT production in mouse intestinal tissues cultured ex vivo. Type of series: cell-based. The settings on record: 25 μM and 50 μM, p<0.05, FIG. 4A-B. The procedure: (§1) Mouse and human colonic tissues were collected as previously described. To investigate the effects of phenethylamine on 5-HT levels in mouse and human colon tissues, the colonic tissues were cut into small pieces (0.5 cm) and placed in a 12-well cell culture plate. Colon pieces were added to DMEM/F12 medium containing 5% fetal bovine serum, penicillin-streptomycin (1×), and gentamycin (20 μg/ml), followed by treatment with phenethylamine and EPPTB, as indicated. Colon pieces were incubated at 37° C. with 5% CO2 and 95% air. A 200 μL volume of medium was collected from each well at the indicated time points for the analysis of 5-HT.
(§2) An Agilent 1290 Infinity II UPLC system coupled to a triple quadrupole (QQQ) 6470 mass spectrometer was used for targeted metabolomics profiling. A Waters BEH 2.1×50 mm C18 1.7 μm column with a pre-column was used. The mobile phase used in LC-MS-QQQ was solution A (water with 0.1% formic acid) and solution B (acetonitrile with 0.1% formic acid). The gradients were set as 2% B (0-0.5 min), 2%-30% B (0.5-4 min), […] B (4-6 min), 100% B (6-8 min), 100%-2% B (8-8.1 min) and maintain in 2% B (8.1-10 min). The MS data were collected and processed using Agilent software. The standard list, MRM transition, fragmentor, and collision energy are listed in (Table 3).

Series [2] relates to human colonic tissues. Nature of the series: 5-HT production in human colonic tissues cultured ex vivo. It is filed as cell-based. The settings on record: 50 μM, p<0.05, FIG. 10A. The procedure:
as §1, §2

The subject of series [3] is 5-HT production. Nature of the series: Oral phenethylamine/tryptamine administration in mice: 5-HT levels, GI transit, fecal water content. The settings on record: for GI transit / fecal water content / serum and intestinal 5-HT levels: mice, oral administration, 2, 5 and 10 mg/kg, p<0.01. It is filed as in vivo, mouse. The procedure:
as §2
(§3) To study phenethylamine and tryptamine effects on 5-HT production, phenethylamine and tryptamine at a dosage of 2 mg/kg, 5 mg/kg and 10 mg/kg (dissolved in 0.5% CMC-Na, sodium carboxymethyl cellulose) were administered to mice by oral gavage. Mice treated with/without phenethylamine and tryptamine were sacrificed under isoflurane anesthesia. Biological samples including serum, duodenum, ileum, proximal colon and distal colon tissues and luminal contents in each intestinal segments were collected at indicated dosages and times and stored at −80° C. until analysis.
(§4) For the fecal pellet water content test, 1.5 mL Eppendorf tubes were pre-weighed and used to collect fecal pellets from mice immediately after defecation. The tubes were then closed to measure wet weight. Afterward, the tubes were opened and placed in an oven at 60° C. overnight to measure the dry weight. Fecal pellet water content was measured by subtracting the dry weight from the wet weight and normalizing it to the wet pellet mass. Fecal pellets from mice were also counted within 2 h of the defecation frequency test.
(§5) Carmine red assay: Mice were administered 300 μL of 6% carmine red solution (prepared by 0.5% methylcellulose) by oral gavage to measure the GI transit time after treatment with phenethylamine at the indicated dosages. The mice were placed on white sheet paper to track the red pellet in their cages after oral gavage. The total time taken for the appearance of the first red pellet after oral gavage was recorded as gut transit time.

Series [4] in a line: Phenethylamine level in intestinal tissues and luminal content after oral gavage. It is filed as in vivo, mouse. The settings on record: for concentration at 0 min / concentration at 15 min / concentration at 30 min: mouse, oral. The procedure:
as §2, §3

The test system of series [5] is PKA and CaMKII. The experiment in a line: Western blot of PKA and CaMKII phosphorylation in colonic tissues of phenethylamine-treated mice. It is filed as in vivo, mouse. The settings on record: colonic tissues of mice, 2, 5 and 10 mg/kg, p<0.05. The procedure: as §3
Colonic tissues were lysed in RIPA buffer containing protease inhibitor cocktails in a tissuelyzer. The tissue lysates were centrifuged at 15,000 rpm for 15 min at 4° C. and quantified by BCA kit for protein concentration. The protein content normalized supernatant was mixed with 5× loading buffer and heated at 98° C. in a dry bath for 10 min. The samples were evaluated according to the western blotting protocol (Abcam). The blots were incubated with HRP-conjugated anti-rabbit IgG or anti-mouse IgG and reacted with enhanced chemiluminescence.
For orientation: Immunoblotting shows a protein as a band on a membrane.

Series [6] deals with T1, TAAR1 (Mus musculus, UniProt Q923Y8).
T1 construct: is expressed in EC cells in the GI tract; from tissue; host or cells: living mice (conventional, antibiotic-treated, or wild-type littermates of Taar1 KO, C57Bl/6J)
T1 sequence (Q923Y8 whole entry): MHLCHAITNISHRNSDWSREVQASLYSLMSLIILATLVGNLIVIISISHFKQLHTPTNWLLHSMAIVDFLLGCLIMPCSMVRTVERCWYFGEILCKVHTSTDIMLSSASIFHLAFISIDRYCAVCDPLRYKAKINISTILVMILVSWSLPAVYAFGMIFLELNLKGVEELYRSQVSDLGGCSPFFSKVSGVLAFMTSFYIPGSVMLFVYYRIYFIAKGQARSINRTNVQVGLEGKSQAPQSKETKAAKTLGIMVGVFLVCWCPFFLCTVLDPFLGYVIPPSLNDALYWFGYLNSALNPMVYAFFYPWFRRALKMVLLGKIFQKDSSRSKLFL
The experiment in a line: Phenethylamine in Taar1-/- mice and wild-type littermates. It is filed as in vivo. The settings on record: Taar1-/- mice vs wild-type littermates, phenethylamine 10 mg/kg, p<0.05. The procedure:
as §4, §5
Taar1 (NM_053205) knockout mouse model (C57Bl/6J) was generated by CRISPR/Cas-mediated genome engineering. All the Taar1 KO mice and their wildtype littermates were genotyped using PCR and Southern blot [F1: […] (SEQ ID NO:3), R1: […] (SEQ ID NO:4), R2: […] (SEQ ID NO:5)]. The product size of F1 and R1 is 989 bp while the product size of F1 and R2 is 625 bp. […]

The test system of series [7] is QGP-1 cells. The experiment in a line: 5-HT production in QGP-1 cells. Type of series: cell-based, human. The settings on record: 25-200 μM, 24 hours, FIG. 10D-E. Here is the method:
(§6) QGP-1 cells were cultured in RPMI 1640 medium supplemented with 10% fetal bovine serum (FBS). QGP-1 is a human pancreatic endocrine cell line that produces 5-HT. To evaluate the effects of phenylalanine, phenethylamine, and phenylacetic acid on 5-HT production, QGP-1 cells were treated with or without phenylalanine, phenethylamine, and phenylacetic acid at the indicated concentrations and times.
as §2

Series [8] has as its target T2, 5-HTR4 (Homo sapiens, UniProt Q13639).
T2 construct: endogenous in cells; host or cells: QGP-1
The experiment in a line: 5-HTR4 antagonist Piboserod on phenethylamine/tryptamine-stimulated 5-HT in QGP-1 cells. Type of series: cell-based. Conditions: 24 hours, FIG. 11M. The procedure:
as §6

[9] abbreviates: serum of phenethylamine-treated mice, FIG. 5A.

T2 sequence (Q13639 whole entry): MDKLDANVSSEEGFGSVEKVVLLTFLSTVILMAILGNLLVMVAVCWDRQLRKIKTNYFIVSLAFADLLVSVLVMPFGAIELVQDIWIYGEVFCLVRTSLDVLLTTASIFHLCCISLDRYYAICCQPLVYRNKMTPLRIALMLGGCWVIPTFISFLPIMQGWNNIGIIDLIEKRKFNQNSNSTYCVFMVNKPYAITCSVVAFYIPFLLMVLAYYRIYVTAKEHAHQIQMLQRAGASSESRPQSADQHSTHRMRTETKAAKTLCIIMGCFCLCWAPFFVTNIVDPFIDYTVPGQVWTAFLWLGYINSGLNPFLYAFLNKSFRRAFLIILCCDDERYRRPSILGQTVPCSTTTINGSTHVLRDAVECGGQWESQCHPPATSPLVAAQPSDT

As to `NCCc1ccccc1` [phenethylamine], the “5-HT production in mouse intestinal tissues” value in series [1] was “significantly enhanced 5-HT production”. Moreover, the “5-HT production in human colonic tissues” value in series [2] is listed as “significantly enhanced 5-HT production”. Moreover, the “circulating 5-HTP levels” value in series [3] (mice, 2, 5 and 10 mg/kg, FIG. 11A-C) was “increase in circulating 5-HTP levels in mice in a dose-dependent manner”. In series [3], the GI transit entry was “accelerated GI transit”. Moreover, in series [3], the fecal water content result is listed as “increased fecal water content”. In series [3], the “serum and intestinal 5-HT levels” value is “significantly elevated serum and intestinal 5-HT levels”. For the same compound, in series [3] (setting [9]), the 5-HIAA/5-HT ratio result is on record as “but not the 5-HIAA/5-HT ratio, were increased”. For the same compound, the 5-HT/5-HTP ratio result in series [3] (setting [9]) is reported as “increased”. Further, the 5-HTP/Trp ratio result in series [3] (setting [9]) is “increased”. Also, the “Phenethylamine level, Concentration” value in series [4] (Duodenum, 15 min) was determined as 1082 µg/g; in series [4] (Luminal content in duodenum, 15 min), 1245 µg/g; in series [4] (Luminal content in duodenum, 30 min), 1200 µg/g. Also, the concentration at 0 min stood at 3000 ng/g in series [4] (luminal content of duodenum, Luminal content in duodenum); 1670 ng/g in series [4] (luminal content of ileum, Luminal content in ileum); 3700 ng/g in series [4] (luminal content of proximal colon, Luminal content in proximal colon); 230 ng/g in series [4] (Duodenum); 240 ng/g in series [4] (Ileum); 12000 ng/g in series [4] (Proximal colon). Besides, the concentration at 15 min in series [4] (luminal content of ileum, Luminal content in ileum, 15 min) turned out to be 29700 ng/g; in series [4] (luminal content of proximal colon, Luminal content in proximal colon, 15 min), 112000 ng/g; in series [4] (Ileum, 15 min), 24000 ng/g; in series [4] (Proximal colon, 15 min), 116000 ng/g. Also, the concentration at 30 min in series [4] (luminal content of ileum, Luminal content in ileum, 30 min) is 9300 ng/g; in series [4] (luminal content of proximal colon, Luminal content in proximal colon, 30 min) it was 58900 ng/g; in series [4] (Duodenum, 30 min) it was 879000 ng/g; in series [4] (Ileum, 30 min), 8000 ng/g; in series [4] (Proximal colon, 30 min), 38000 ng/g. In series [5], the “phosphorylation of PKA and CaMKII” value is given as “an increase in the phosphorylation of these proteins”. For the same compound, the “phenethylamine-induced changes in 5-HT production, GI transit and secretion under genetic ablation of TAAR1” value in series [6] was “abolished phenethylamine-induced changes in 5-HT production, GI transit, and secretion”.
For the compound `NCCc1c[nH]c2ccccc12` [tryptamine], the “5-HT production in mouse intestinal tissues” value in series [1] is recorded as “significantly enhanced 5-HT production”. For the same compound, the “5-HT production in human colonic tissues” value in series [2] was “significantly enhanced 5-HT production”. Further, in series [3], the GI transit entry is on record as “accelerated GI transit”; the fecal water content entry is listed as “increased fecal water content”; the “serum and intestinal 5-HT levels” value is “significantly elevated serum and intestinal 5-HT levels”.
As to `N[C@@H](Cc1c[nH]c2ccccc12)C(=O)O` [tryptophan], the “5-HT levels in QGP-1 cells (precursors and metabolites)” value (“5-HT levels in QGP-1 cells” for short) in series [7] was “did not change the 5-HT levels”.
Still for that read-out and setting: with `N[C@@H](Cc1ccccc1)C(=O)O` [phenylalanine] the entry was “did not change the 5-HT levels”.
Turning to `CCCCN1CCC(CNC(=O)c2c3n(c4ccccc24)CCCO3)CC1` [Piboserod], in series [8], the “5-HT levels stimulated by phenethylamine or tryptamine” value is on record as “did not restore 5-HT levels” and the “tryptamine-stimulated 5-HT production” value was “modest reduction of tryptamine-stimulated 5-HT production”.
For the compound `O=C(O)Cc1ccccc1` [phenylacetic acid], the “5-HT levels in QGP-1 cells” value in series [7] is “did not change the 5-HT levels”.
In the case of indole acetic acid, the “5-HT levels in QGP-1 cells” value in series [7] is listed as “did not change the 5-HT levels”.
